Results published in patent US20230075937A1, “METHODS FOR STRENGTHENING AND REPAIRING HAIR” (Living Proof, Inc., priority 2021, published 2023).

Key:
Design in all cases: species or system human
[1] = Differential scanning calorimetry (DSC) of hair, denaturation temperature (Td); conditions: for hair denaturation temperature: post-treatment pH 2, 5 min
Experimental: To explore treatment with PA and PA-GL, studies were performed using 3× bleached hair as a damaged hair model (each bleaching was done with a mixture of Bleaching powder (BW2) and 40V clear developer at 1:2 ratio, for 1 hour at room temperature). […] Differential scanning calorimetry (DSC) was performed on tresses at wet stage to determine the effect of phytic acid treatment on hair denaturation temperatures (Td). For wet stage DSC, a hair sample of 3-5 mg in 50 μL Deionized water sealed and equilibrated (overnight) in a stainless steel pressure resistant high-volume pan is heated from 25° C. to 180° C. at a 5 ° C./min heating rate. […] The heat damaged hair was prepared by subjecting virgin brown hair to 4 cycles of heat treatments. In each cycle, hair was treated with Deionized water (1 mL per 1.5 g of hair), massaged for 30 s followed by heat treatment (blow dry until dry at medium heat setting, flat iron at 450° F. for 10 strokes at a rate of 10 seconds per stroke from root to tip). At the end of 4 cycles of heat treatments, the hair tress is dialyzed overnight in Deionized water and air dried before DSC testing. The PA treatment on the heat damaged hair was performed using a 2 wt % PA aqueous solution at pH 4.5 for 30 min followed by blow dry. […] The heat protection benefit provided by PA using DSC was also explored, for which virgin hair with or without PA pre-treatment was subjected to 3 cycles of heat treatments. A virgin control sample was also added for comparison, which was prepared by treating the virgin brown hair with Deionized water (1 mL per 1.5 g of hair), massaged 30 seconds and air dried. For each heat treatment cycle, hair sample was blow dried until dry at medium heat setting, and flat ironed at 450° F. for 10 strokes at a rate of 10 seconds per stroke from root to tip. After three cycles of heat treatments, hair samples were dialyzed overnight in DI water and air dried before DSC testing. […] To explore strengthening benefits of PA in a hair care formulation, a PA formulation containing 0.75 wt % PA at pH 4-4.5 was used as an example. The 3× bleached hair was treated with 0.25 g of the PA formulation for 10 min followed by blow dry. Differential scanning calorimetry was performed on tresses to determine the effect of phytic acid treatment on hair denaturation temperatures (Td). […] The heat damaged hair was prepared by subjecting virgin brown hair to 4 cycles of heat treatments. In each cycle, hair was treated with Deionized water (1 mL per 1.5 g of hair), massaged for 30 s followed by heat treatment (blow dry until dry at medium heat setting, flat iron at 450° F. for 10 strokes at a rate of 10 seconds per stroke from root to tip). At the end of 4 cycles of the heat treatments, the hair tress is dialyzed overnight in Deionized water and air dried before DSC testing. […] Furthermore, the capability of PA formulation to protect hair from future chemical treatments (bleaching and coloring) was explored. In this study, two sets of treatments were performed and for each set three replicates were included. In Set I, a virgin tress was bleached once (1st bleach), followed by 12 cycles of shampoo and conditioner washes, then another bleach (2nd bleach). In Set II, similar bleaching and washing process was taken except that the tress was treated with PA formulation after the 1st bleach and 3rd, 6th, 9th, and 12th wash. In both bleaching steps, hair was treated with a mixture of BW2 bleaching powder and clear 30 V developer (1:1.5 ratio, 5 g per 1.5 g of hair) for 20 min under heat (high heat setting in a Belvedere hooded dryer), followed by 30 s water rinse and air dry at room temperature. The hair denaturation temperature (Td) was collected after each bleach treatment and every 3 washing cycles. […] Heat protection provided by the PA formulation using DSC was also explored. Here, three groups of hair samples were compared: virgin, heat control, and PA formulation treated. […]

[2] = Relative hair diameter swelling by environmental scanning electron microscopy; conditions: 3× bleached hair; 2 wt % PA pH 4-4.5, 30 min, blow dry; 10% to 95% RH
Experimental: All measurements were carried out using a FEI Quanta 200 FEG MKII scanning electron microscope, operating at 15 kV, with relative humidity ranging from 10% to 95%. Single source virgin brown hair was bleached three times to obtain a 3× bleached hair model (each bleaching was done with a mixture of bleaching powder (BW2) and 40V clear developer at 1:2 ratio for 1 hour at room temperature, followed by 30 s water rinse and air-dry at room temperature).

[3] = Modified Lowry Protein Assay, hair protein loss
Experimental: In addition, surface repair benefits from the PA or PA-GL treatments were evaluated by a protein loss assay. It is known that hair cuticle damage after various chemical treatments such as bleaching and perming results in a higher protein loss. To quantify the protein loss before and after treatments, a Modified Lowry Protein Assay was employed. In this method, a Lowry assay (Pierce Modified Lowry Protein Assay Kit, working range is at 1-1500 μg/mL) followed by absorbance measurement using UV-Visible Spectrophotometer (λmax at 740-760 nm) is used to quantify hair protein loss for a sample size of 250 mg of hair in 4 mL of deionized water.

[4] = High humidity test, hair tress area change; conditions: 3× bleached hair, 65% RH, vs untreated bleached hair
Experimental: In this method, hair tresses are exposed to high humidity at 65% RH at 25° C. for 30 min and the area of hair tresses before and after exposure to humidity is quantified using Image J application.

[5] = Differential wetting characterization (DWC), water contact angle
Experimental: In this method, a pair of hair fibers is mounted on an in-house built stage in a horizontal plane with a separation of ˜0.75 mm. A droplet of deionized water (1 μL) is then applied onto the fiber pair by using a micro syringe. The droplet is observed using a Nikon microscope under 5× magnification and the image is taken using the incorporated digital camera. In the image, the contact angles of the water droplet on the fiber pair are measured respectively using the Nikon Advance Research software. The relative surface hydrophobicity of the fiber pair is correlated to the resulting contact angles, of which the greater value indicates higher hydrophobicity. […]

[6] = Fracture patterns of fibers broken in Dia-stron tensile testing; conditions: 3× bleached hair; 2 wt % PA pH 4-4.5, 10 min, blow dry (virgin 34%, bleached 6%)
Experimental: Depending on the level of hair damage, hair fibers may break with very different fracture patterns when pulling to break. […] Fracture patterns of fibers broken from Dia-stron tensile testing were examined under optical microscope to understand the relationship between fracture pattern and hair damage level. […] In contrast, when the bleached hair was treated with a 2 wt % PA aqueous solution at pH 4-4.5 for 10 min, followed by blow dry, 38% smooth fractures were observed, close to that for virgin hair, indicating effective internal hair structure repair and complete restore by PA.
Hair fracture patterns of 3× bleached and PA formulation treated fibers after Dia-stron tensile testing were also examined and compared to those for virgin and bleached hair.

[7] = Dia-Stron single fiber mechanical testing at wet stage
Excerpt: Additionally, the strengthening benefits of PA and PA-GL blend treatments were confirmed by Dia-Stron single fiber mechanical testing at wet stage. For wet stage single fiber method, hair fibers (≥20 fibers per treatment) at 30 mm length are fixed by 2 brass crimps at the ends and mounted on a Dia-stron tray. Initial dimension measurements are collected using a Dia-Stron FDAS770 (double ended samples, sample size of 30 mm, no of slices of 5 under one rotation per slice), followed by equilibration in Deionized water for at least 2 h prior to testing. All fiber tensile measurements are performed using a Dia-Stron MTT686/MTT690 (under 100% extension at gauge force of 2N, break threshold of 5 g, rate of 20 mm/min, maximum force of 2000 gmf and premature failure threshold of 10% strain).

[8] = 3× bleached hair, 2 wt % solution, heat styling (blow dry or flatiron)
[9] = bleached hair, PA at 2, 5 or 15 wt % in Restore Repair Leave-In conditioner, flatiron
[10] = bleached hair, treatment pH 2 to 5, flatiron
[11] = colored hair, post-treatment, blow dry
[12] = more damaged model (2× bleached at 45° C.), 2 wt % PA pH 2, 1 hour

O=P(O)(O)O[C@H]1[C@H](OP(=O)(O)O)[C@@H](OP(=O)(O)O)[C@H](OP(=O)(O)O)[C@@H](OP(=O)(O)O)[C@H]1OP(=O)(O)O [PA, phytic acid]
Td after 10 shampoo and conditioner washing cycles ([1]; 3× bleached hair treated with 2 wt % PA aqueous solution): ≥ 149 °C | hair denaturation temperature (Td) ([1]; 3× bleached hair, 2 wt % aqueous solution pH 2, 15 min, heat styling, vs virgin hair): fully recovered to the virgin level | denaturation temperature ([1]; 3× bleached hair, PA at 2 wt % or higher concentration, vs virgin hair): recovered back to or even beyond the virgin level | hair denaturation temperature ([1]; ATG-reduced hair, blow dry, vs virgin hair): recovered to the level of virgin hair | hair denaturation temperature ([1]; colored 3× bleached hair, blow dry): recovers to the level of the virgin hair | recovery in Td ([1]; heat damaged hair (4 heat cycles), 2 wt % PA pH 4.5, 30 min, blow dry): 5 °C | immediate improvement in Td ([1]; treated after 1st bleach (Set II)): 3 °C | Td over 12 washing cycles and after 2nd bleach ([1]; treated after 1st bleach and 3rd, 6th, 9th, 12th wash, vs virgin level): remained above the virgin level | Td after 3 heating cycles ([1]; virgin hair treated before each heat treatment (flat iron 450° F.), heat control 7° C. decrease): same Td as virgin hair | change in Td upon 3 cycles of heat treatments ([1]; virgin hair with PA pre-treatment, heat protection): didn't show any significant change | relative diameter swelling rate [2]: greatly reduced, even lower than virgin hair | reduction of protein loss ([3]; 3× bleached hair, vs untreated bleached hair (6.6 mg/g hair)): 27% | reduction of protein loss ([3]; ATG-reduced hair (7.9 mg/g hair untreated)): 58% | hair tress area increase ([4]; 25° C., 30 min): much less area increase | difference in area increase after 7 shampoo and conditioner washing cycles [4]: remained significant | increase in water contact angle ([5]; 3× bleached hair, vs untreated bleached hair): 5 ° | increase in water contact angle ([5]; ATG-reduced hair): 5 ° | increase in water contact angle ([5]; colored hair): 5 ° | smooth fractures [6]: 38% | Young's modulus [7, 8]: greatly improved | break stress [7, 8]: greatly improved | PA concentration at which significant improvement in Young's modulus and break stress was achieved ([7]; 3× bleached hair, PA 0.1 to 20 wt %, 15 min, heat styling): ≥ 2 wt % | Young's modulus [7, 9]: significant increases | break stress [7, 9]: significant increases | Young's modulus [7, 10]: greatly improved | break stress [7, 10]: greatly improved | Young's modulus [7, 11]: greatly improved | break stress [7, 11]: greatly improved | Young's modulus [7, 12]: greatly improved | break stress [7, 12]: greatly improved
